According to the NIST ThermoML archive (doi:10.1016/j.jct.2006.05.006):

Assay: xn = mol fraction of the nth substance listed
Details: 101 kPa, Liquid

CN1CCCC1=O [N-methylpyrrolidone] + c1ccccc1
Details	mass density [kg/m3]
293.15 K, x2 = 0	1032.66
293.15 K, x2 = 0.0434	1027.48
293.15 K, x2 = 0.1023	1020.3
293.15 K, x2 = 0.1625	1012.78
293.15 K, x2 = 0.2237	1004.93
293.15 K, x2 = 0.2834	997.06
293.15 K, x2 = 0.3457	988.6
293.15 K, x2 = 0.4015	980.8
293.15 K, x2 = 0.4865	968.47
293.15 K, x2 = 0.5421	960.08
293.15 K, x2 = 0.6154	948.61
293.15 K, x2 = 0.6854	937.17
293.15 K, x2 = 0.7549	925.31
293.15 K, x2 = 0.8254	912.73
293.15 K, x2 = 0.9002	898.74
293.15 K, x2 = 0.9772	883.6
303.15 K, x2 = 0	1023.42
303.15 K, x2 = 0.0444	1018.04
303.15 K, x2 = 0.1165	1009.11
303.15 K, x2 = 0.1854	1000.32
303.15 K, x2 = 0.2539	991.32
303.15 K, x2 = 0.3296	981.02
303.15 K, x2 = 0.3965	971.6
303.15 K, x2 = 0.4653	961.58
303.15 K, x2 = 0.5362	950.85
303.15 K, x2 = 0.6033	940.29
303.15 K, x2 = 0.6798	927.73
303.15 K, x2 = 0.7451	916.54
303.15 K, x2 = 0.8125	904.52
303.15 K, x2 = 0.8847	891.05
303.15 K, x2 = 0.9245	883.36
303.15 K, x2 = 0.9799	872.31
313.15 K, x2 = 0	1014.27
313.15 K, x2 = 0.0454	1008.7
313.15 K, x2 = 0.1054	1001.17
313.15 K, x2 = 0.1765	992
313.15 K, x2 = 0.2365	984.05
313.15 K, x2 = 0.2965	975.88
313.15 K, x2 = 0.3654	966.2
313.15 K, x2 = 0.4368	955.82
313.15 K, x2 = 0.5012	946.12
313.15 K, x2 = 0.5687	935.58
313.15 K, x2 = 0.6358	924.71
313.15 K, x2 = 0.6954	914.69
313.15 K, x2 = 0.7658	902.39
313.15 K, x2 = 0.8326	890.21
313.15 K, x2 = 0.9036	876.72
313.15 K, x2 = 0.9684	863.87
323.15 K, x2 = 0	1005.62
323.15 K, x2 = 0.0521	999.09
323.15 K, x2 = 0.1245	989.78
323.15 K, x2 = 0.1987	979.96
323.15 K, x2 = 0.2541	972.41
323.15 K, x2 = 0.3214	962.98
323.15 K, x2 = 0.3854	953.74
323.15 K, x2 = 0.4215	948.4
323.15 K, x2 = 0.4854	938.69
323.15 K, x2 = 0.5411	929.98
323.15 K, x2 = 0.6124	918.42
323.15 K, x2 = 0.6854	906.11
323.15 K, x2 = 0.7214	899.84
323.15 K, x2 = 0.7984	885.99
323.15 K, x2 = 0.8598	874.48
323.15 K, x2 = 0.9249	861.81
333.15 K, x2 = 0	996.28
333.15 K, x2 = 0.0451	990.55
333.15 K, x2 = 0.1025	983.11
333.15 K, x2 = 0.1632	975.06
333.15 K, x2 = 0.2302	965.93
333.15 K, x2 = 0.2987	956.32
333.15 K, x2 = 0.3512	948.74
333.15 K, x2 = 0.4215	938.29
333.15 K, x2 = 0.4865	928.31
333.15 K, x2 = 0.5521	917.9
333.15 K, x2 = 0.6213	906.51
333.15 K, x2 = 0.6895	894.85
333.15 K, x2 = 0.7451	885.02
333.15 K, x2 = 0.8145	872.3
333.15 K, x2 = 0.8865	858.55
333.15 K, x2 = 0.9654	842.8
343.15 K, x2 = 0	987.39
343.15 K, x2 = 0.0414	982.03
343.15 K, x2 = 0.1154	972.25
343.15 K, x2 = 0.1874	962.43
343.15 K, x2 = 0.2564	952.76
343.15 K, x2 = 0.3248	942.88
343.15 K, x2 = 0.3965	932.18
343.15 K, x2 = 0.4685	921.08
343.15 K, x2 = 0.5384	909.92
343.15 K, x2 = 0.5968	900.27
343.15 K, x2 = 0.6622	889.13
343.15 K, x2 = 0.7321	876.77
343.15 K, x2 = 0.7954	865.17
343.15 K, x2 = 0.8541	854.04
343.15 K, x2 = 0.9123	842.63
343.15 K, x2 = 0.9799	828.9

CCc1ccccc1 [ethylbenzene] + CN1CCCC1=O
Details	mass density [kg/m3]
293.15 K, x1 = 0.0854	1016.73
293.15 K, x1 = 0.1254	1009.4
293.15 K, x1 = 0.1847	998.68
293.15 K, x1 = 0.2475	987.56
293.15 K, x1 = 0.3021	978.07
293.15 K, x1 = 0.3654	967.23
293.15 K, x1 = 0.4251	957.16
293.15 K, x1 = 0.4985	944.94
293.15 K, x1 = 0.5471	936.92
293.15 K, x1 = 0.6012	928.06
293.15 K, x1 = 0.6621	918.17
293.15 K, x1 = 0.7214	908.66
293.15 K, x1 = 0.7954	897.01
293.15 K, x1 = 0.8451	889.37
293.15 K, x1 = 0.9214	878.1
293.15 K, x1 = 1	867.28
303.15 K, x1 = 0.0458	1014.88
303.15 K, x1 = 0.1012	1004.66
303.15 K, x1 = 0.1685	992.46
303.15 K, x1 = 0.2314	981.29
303.15 K, x1 = 0.2958	970.09
303.15 K, x1 = 0.3541	960.11
303.15 K, x1 = 0.4217	948.71
303.15 K, x1 = 0.4851	938.16
303.15 K, x1 = 0.5471	927.94
303.15 K, x1 = 0.6012	919.09
303.15 K, x1 = 0.6874	905.16
303.15 K, x1 = 0.7451	895.97
303.15 K, x1 = 0.8124	885.46
303.15 K, x1 = 0.8954	872.96
303.15 K, x1 = 0.9654	863.01
303.15 K, x1 = 1	858.36
313.15 K, x1 = 0.0547	1004.11
313.15 K, x1 = 0.1245	991.32
313.15 K, x1 = 0.1874	980.01
313.15 K, x1 = 0.2451	969.83
313.15 K, x1 = 0.3012	960.1
313.15 K, x1 = 0.3621	949.71
313.15 K, x1 = 0.4321	937.95
313.15 K, x1 = 0.4985	926.93
313.15 K, x1 = 0.5621	916.47
313.15 K, x1 = 0.6251	906.2
313.15 K, x1 = 0.6958	894.8
313.15 K, x1 = 0.7589	884.77
313.15 K, x1 = 0.8245	874.57
313.15 K, x1 = 0.9014	863.06
313.15 K, x1 = 0.9789	852.18
313.15 K, x1 = 1	849.38
323.15 K, x1 = 0.0654	993.44
323.15 K, x1 = 0.1123	984.81
323.15 K, x1 = 0.1785	972.82
323.15 K, x1 = 0.2356	962.68
323.15 K, x1 = 0.2959	952.18
323.15 K, x1 = 0.3575	941.62
323.15 K, x1 = 0.4154	931.85
323.15 K, x1 = 0.4825	920.66
323.15 K, x1 = 0.5415	910.92
323.15 K, x1 = 0.606	900.36
323.15 K, x1 = 0.6784	888.62
323.15 K, x1 = 0.7451	877.94
323.15 K, x1 = 0.8214	866
323.15 K, x1 = 0.8954	854.87
323.15 K, x1 = 0.9548	846.41
323.15 K, x1 = 1	840.35
333.15 K, x1 = 0.0687	983.52
333.15 K, x1 = 0.1254	973.12
333.15 K, x1 = 0.1874	961.93
333.15 K, x1 = 0.2454	951.67
333.15 K, x1 = 0.3021	941.83
333.15 K, x1 = 0.3654	931.02
333.15 K, x1 = 0.4251	920.99
333.15 K, x1 = 0.4784	912.12
333.15 K, x1 = 0.5241	904.57
333.15 K, x1 = 0.5864	894.36
333.15 K, x1 = 0.6478	884.37
333.15 K, x1 = 0.7012	875.76
333.15 K, x1 = 0.7898	861.71
333.15 K, x1 = 0.8457	853.12
333.15 K, x1 = 0.9254	841.39
333.15 K, x1 = 1	831.25
343.15 K, x1 = 0.0784	972.86
343.15 K, x1 = 0.1354	962.43
343.15 K, x1 = 0.1985	951.09
343.15 K, x1 = 0.2415	943.48
343.15 K, x1 = 0.3021	932.94
343.15 K, x1 = 0.3654	922.12
343.15 K, x1 = 0.4251	912.06
343.15 K, x1 = 0.4984	899.86
343.15 K, x1 = 0.5641	889.03
343.15 K, x1 = 0.6214	879.66
343.15 K, x1 = 0.6985	867.19
343.15 K, x1 = 0.7515	858.72
343.15 K, x1 = 0.8125	849.17
343.15 K, x1 = 0.8895	837.51
343.15 K, x1 = 0.9784	824.96
343.15 K, x1 = 1	822.11
353.15 K, x1 = 0.0874	962.38
353.15 K, x1 = 0.1421	952.35
353.15 K, x1 = 0.2032	941.34
353.15 K, x1 = 0.2874	926.52
353.15 K, x1 = 0.3451	916.58
353.15 K, x1 = 0.4021	906.9
353.15 K, x1 = 0.487	892.69
353.15 K, x1 = 0.5474	882.68
353.15 K, x1 = 0.612	872.06
353.15 K, x1 = 0.6874	859.79
353.15 K, x1 = 0.7458	850.42
353.15 K, x1 = 0.8211	838.6
353.15 K, x1 = 0.8954	827.4
353.15 K, x1 = 0.9445	820.37
353.15 K, x1 = 0.98	815.52
353.15 K, x1 = 1	812.9
